Series [1] concerns MCF7. Put plainly: Antiproliferative activity against human MCF7 cells assessed as reduction in cell viability at 50 uM measured after 24 hrs. Format: functional, cell-based.
The test system of series [2] is HCT-116. Kind of series: Antiproliferative activity against human HCT-116 cells assessed as reduction in cell viability at 50 uM measured after 24 hrs. Format: functional, cell-based.
The subject of series [3] is MGC-803. Kind of series: Antiproliferative activity against human MGC-803 cells assessed as reduction in cell viability at 50 uM measured after 24 hrs. It counts as functional, cell-based.
Series [4] relates to HCT-116. Kind of series: Antiproliferative activity against human HCT-116 cells assessed as cell viability at 50 uM measured after 24 hrs relative to control. Format: functional. As to conditions: read-out: Activity.
Series [5] concerns MCF7. Put plainly: Antiproliferative activity against human MCF7 cells assessed as cell viability at 50 uM measured after 24 hrs relative to control. It counts as functional. The settings on record: read-out: Activity.
Series [6] deals with MGC-803. Put plainly: Antiproliferative activity against human MGC-803 cells assessed as cell viability at 50 uM measured after 24 hrs relative to control. As to conditions: read-out: Activity. It counts as functional.
The test system of series [7] is MGC-803. Kind of series: Antimigratory activity against human MGC-803 cells assessed as migration rate at 5 uM measured after 48 hrs scratch assay (reference value: 63 +/- 1.61%). It counts as functional.
Series [8] is described as follows: Inhibition of cell clone formation in human MGC-803 cells assessed as percentage of area of cell clones at 1 uM (reference value: 1 +/- 0.02%). The arrangement: scale not given: the % may be the effect or the level left. Format: functional.
For series [9], the system named is MGC-803. Kind of series: Effect on metabolic changes in human MGC-803 cells assessed as down regulation of taurine level at 4 uM by 1H-NMR analysis. Format: functional, cell-based.
The test system of series [10] is MGC-803. Kind of series: Antimigratory activity against human MGC-803 cells assessed as migration rate at 5 uM measured after 24 hrs scratch assay (reference value: 40.72 +/- 0.86%). It counts as functional.
The test system of series [11] is MCF7. Put plainly: Antiproliferative activity against human MCF7 cells assessed as reduction in cell viability measured after 24 hrs. It counts as functional, cell-based. As to conditions: MCF7, 24 h.
Series [12] is described as follows: Inhibition of cell clone formation in human MGC-803 cells assessed as percentage of area of cell clones at 2.5 uM (reference value: 1 +/- 0.02%). More on the design: scale not given: the % may be the effect or the level left. Format: functional.
Series [13] relates to MGC-803. Put plainly: Effect on metabolic changes in human MGC-803 cells assessed as down regulation of GSH level at 4 uM by 1H-NMR analysis. It counts as functional, cell-based.
For series [14], the system named is MGC-803. Kind of series: Antimigratory activity against human MGC-803 cells assessed as increase in number of floating cells at 10 uM measured after 24 hrs by scratch assay. It counts as functional, cell-based.
Series [15] deals with MGC-803. Put plainly: Effect on metabolic changes in human MGC-803 cells assessed as upregulation of glycine level at 4 uM by 1H-NMR analysis. It counts as functional, cell-based.
Series [16] relates to MGC-803. Put plainly: Effect on metabolic changes in human MGC-803 cells assessed as upregulation of leucine level at 4 uM by 1H-NMR analysis. Format: functional, cell-based.
Series [17] deals with MGC-803. Put plainly: Antimigratory activity against human MGC-803 cells assessed as increase in aggregated dead cells at 10 uM measured after 24 hrs by scratch assay. It counts as functional, cell-based.
In series [18] the test system is MGC-803. Kind of series: Effect on metabolic changes in human MGC-803 cells assessed as down regulation of choline phosphate level at 4 uM by 1H-NMR analysis. Format: functional, cell-based.
A short description of series [19]: Cytotoxicity against HEK293FT cells assessed as reduction in cell viability measured after 24 hrs. Format: toxicity, cell-based. As to conditions: human.
Series [20] is described as follows: Inhibition of cell clone formation in human MGC-803 cells assessed as percentage of area of cell clones at 1.5 uM (reference value: 1 +/- 0.02%). It counts as functional. More on the design: scale not given: the % may be the effect or the level left.
In series [21] the test system is MGC-803. Put plainly: Effect on metabolic changes in human MGC-803 cells assessed as down regulation of ADP level at 4 uM by 1H-NMR analysis. Format: functional, cell-based.
Series [22] has as its system MGC-803. Kind of series: Antimigratory activity against human MGC-803 cells assessed as migration rate at 2.5 uM measured after 24 hrs scratch assay (reference value: 40.72 +/- 0.86%). It counts as functional.
For series [23], the system named is MGC-803. Put plainly: Effect on metabolic changes in human MGC-803 cells assessed as down regulation of aspartic acid level at 4 uM by 1H-NMR analysis. It counts as functional, cell-based.
In series [24] the test system is MGC-803. Kind of series: Effect on metabolic changes in human MGC-803 cells assessed as down regulation of creatine level at 4 uM by 1H-NMR analysis. Format: functional, cell-based.
The subject of series [25] is MGC-803. Put plainly: Antiproliferative activity against human MGC-803 cells assessed as reduction in cell viability measured after 24 hrs. As to conditions: MGC-803, 24 h. It counts as functional, cell-based.
For series [26], the system named is MGC-803. Kind of series: Effect on metabolic changes in human MGC-803 cells assessed as down regulation of AMP level at 4 uM by 1H-NMR analysis. Format: functional, cell-based.
The subject of series [27] is HCT-116. Put plainly: Antiproliferative activity against human HCT-116 cells assessed as reduction in cell viability measured after 24 hrs. Format: functional, cell-based. The settings on record: HCT-116, 24 h.
Series [28] relates to MGC-803. Put plainly: Antimigratory activity against human MGC-803 cells assessed as increase in large number of dead cells at 10 uM measured after 48 hrs by scratch assay. Format: functional, cell-based.
In series [29] the test system is MGC-803. Kind of series: Antimigratory activity against human MGC-803 cells assessed as migration rate at 2.5 uM measured after 48 hrs scratch assay (reference value: 63 +/- 1.61%). It counts as functional.
Series [30] relates to MGC-803. Kind of series: Effect on metabolic changes in human MGC-803 cells assessed as down regulation of NAD+ level at 4 uM by 1H-NMR analysis. It counts as functional, cell-based.

pIC50: −log10 of the molar value. Active and inactive are the calls of the source. No cut-off for these calls is given here. Bounds are passed on as bounds.

For orientation: pIC50 means the IC50 on a negative log10 scale, so that one unit is a factor of ten. A word on the IC50: it is the concentration that inhibits the measured activity by half.

Consider `C=CCn1c2c(c3ccc(OC)cc31)CCN=C2C`, for which the outcome in series [1], in series [2] and in series [3] was Active.
On to `COc1ccc2c3c(n(Cc4cccc(F)c4)c2c1)C(C)=NCC3`, for which the result in series [1], in series [2] and in series [3] was Active.
Turning to `COc1ccc2c3c(n(Cc4ccc(C)cc4)c2c1)C(C)=NCC3`, the outcome in [1], in series [2] and in [3] was Active.
For the compound `COc1ccc2c3ccnc(C)c3n(CCCCCn3c4cc(OC)ccc4c4ccnc(C)c43)c2c1`, the viability at 50 µM is around 31% in [4], around 35% in [5] and around 59% in series [6].
Regarding `COc1ccc2c3c(n(CCCCCBr)c2c1)C(C)=NCC3`, the outcome in series [1], in series [2] and in series [3] was Active.
With `COC(=O)CCCCn1c2c(c3ccc(OC)cc31)CCN=C2C`, the result in series [1], in series [2] and in [3] was Active.
As for `COc1ccc2c3c(n(CCCCCn4c5cc(OC)ccc5c5ccnc(C)c54)c2c1)C(C)=NCC3`, the Activity in series [7] is 33.65%; in [8], 0.56%; in series [10], 20.76%; in series [12] it was 0.02%; in [20], 0.33%; in series [22], 25.5%. In addition, the Activity in series [29] was 44.14%. In addition, the outcome in [9], in series [13], in series [14], in [15], in series [16] and in series [17] was Active. In addition, the result in series [18], in series [21], in series [23], in [24], in series [26] and in series [28] was Active. Besides, the outcome in series [30] was Active. The pIC50 in [11] was 5.06; in [25], 5.28; in [27] it was 5.42. The viability at 50 µM in [4], in series [5] and in series [6] was below 10% in each case. In [19], the IC50 at 24 h was determined as 47.6 µM.
In the case of `COc1ccc2c3c(n(Cc4cccc(C)c4)c2c1)C(C)=NCC3`, the outcome in series [1], in [2] and in series [3] was Active.
Take `COc1ccc2c3c(n(CCCCCCn4c5cc(OC)ccc5c5ccnc(C)c54)c2c1)C(C)=NCC3`: the result in series [1], in series [2] and in series [3] was Active.
As for `COc1ccc2c3c(n(CCCCCCBr)c2c1)C(C)=NCC3`, the results for the pIC50 in series [11], in series [25] and in series [27] were 4.73, 4.81 and 5.05, respectively. Moreover, the viability at 50 µM in series [4], in [5] and in [6] was below 10% throughout.
Take `COC(=O)Cn1c2c(c3ccc(OC)cc31)CCN=C2C`: the result in series [1], in [2] and in [3] was Active.
Take `COc1ccc2c3c(n(CCc4ccc(F)cc4)c2c1)C(C)=NCC3`: the outcome in [1], in series [2] and in series [3] was Active.

These data come from ChEMBL document CHEMBL6109057, “Synthesis of harmaline N-9 derivatives and investigation of in vitro anticancer activity” (Bioorg Med Chem Lett, 2025).
